Values after ≈ are worked out from the molar mass of the structure shown. Read-outs that look alike come from different tables or passages of the source.
Columns and labels:
[1] = tested on: Salmonella typhimurium IID971; assay: MIC, serial dilution method in Müller-Hinton agar; type: cell-based; details: Salmonella enterica
Protocol: (§1) The antibacterial activities of the cephalosporin compounds of the formula (I) according to this invention, specifically the final product compounds of the Examples 1 to 6 given hereinafter, were assayed in term of their minimum inhibitory concentrations (MIC; mcg/ml) against various test bacteria, as determined according to a standard serial dilution method in Müller-Hinton agar medium (a product of Difico company), where the incubation was made at 37°C for 18 hours. For the comparison purpose, the antibacterial spectrum of a known compound, Cefalexin (abbreviated as CEX) was also assayed in the same way as above.

[2] = tested on: Staphylococcus aureus FDA209P JC-1; assay: MIC, serial dilution method in Müller-Hinton agar; type: cell-based
Protocol: as §1

[3] = tested on: Salmonella typhi 901; assay: MIC, serial dilution method in Müller-Hinton agar; type: cell-based; details: Salmonella enterica, 18 h
Protocol: as §1

[4] = tested on: Escherichia coli K-12 C600; assay: MIC, serial dilution method in Müller-Hinton agar; type: cell-based
Protocol: as §1

[5] = tested on: Salmonella enteritidis G14; assay: MIC, serial dilution method in Müller-Hinton agar; type: cell-based; details: Salmonella enterica
Protocol: as §1

[6] = tested on: Klebsiella oxytosa GN10560; assay: MIC, serial dilution method in Müller-Hinton agar; type: cell-based; details: Klebsiella oxytosa GN10560, cefuroximase producing strain, 37°C, 18 hours
Protocol: as §1

[7] = tested on: Proteus morganii IFO3848; assay: MIC, serial dilution method in Müller-Hinton agar; type: cell-based; details: Morganella morganii; Proteus morganii IFO3848; Müller-Hinton agar, 37°C, 18 hours; read-out: MIC
Protocol: as §1

[8] = tested on: Micrococcus luteus ATCC9341; assay: MIC, serial dilution method in Müller-Hinton agar; type: cell-based; details: 37°C, 18 hours
Protocol: as §1

[9] = tested on: Rms213/Escherichia coli K-12 W3630; assay: MIC, serial dilution method in Müller-Hinton agar; type: cell-based; details: 18 h
Protocol: as §1

[10] = tested on: Salmonella schottmulleri 8006; assay: MIC, serial dilution method in Müller-Hinton agar; type: cell-based; details: 37°C, 18 hours
Protocol: as §1

[11] = tested on: Salmonella paratyphi 1015; assay: MIC, serial dilution method in Müller-Hinton agar; type: cell-based; details: Salmonella enterica, 37°C, 18 hours
Protocol: as §1

[12] = tested on: Staphylococcus aureus Terajima; assay: MIC, serial dilution method in Müller-Hinton agar; type: cell-based; details: 37°C, 18 hours
Protocol: as §1

[13] = tested on: Rms823/Escherichia coli K-12 W3630; assay: MIC, serial dilution method in Müller-Hinton agar; type: cell-based; details: 18 h
Protocol: as §1

[14] = tested on: Staphylococcus aureus MS353; assay: MIC, serial dilution method in Müller-Hinton agar; type: cell-based
Protocol: as §1

[15] = tested on: Bacillus subtilis ATCC6633; assay: MIC, serial dilution method in Müller-Hinton agar; type: cell-based; details: 37°C, 18 hours
Protocol: as §1

[16] = tested on: Rms139/MI Pseudomonas aeruginosa; assay: MIC, serial dilution method in Müller-Hinton agar; type: cell-based; details: 18 h
Protocol: as §1

[17] = tested on: Proteus vulgaris OX-19; assay: MIC, serial dilution method in Müller-Hinton agar; type: cell-based; details: OX19, 37°C, 18 hours
Protocol: as §1

[18] = tested on: Rms212/Escherichia coli K-12 W3630; assay: MIC, serial dilution method in Müller-Hinton agar; type: cell-based; details: 18 h
Protocol: as §1

[19] = tested on: Rte16/Escherichia coli K-12 W3630; assay: MIC, serial dilution method in Müller-Hinton agar; type: cell-based; details: 18 h
Protocol: as §1

[20] = tested on: Klebsiella pneumoniae PCI602; assay: MIC, serial dilution method in Müller-Hinton agar; type: cell-based
Protocol: as §1

[21] = tested on: Escherichia coli NIHJ-JS-2; assay: MIC, serial dilution method in Müller-Hinton agar; type: cell-based
Protocol: as §1

[22] = tested on: Proteus rettgeri IFO3850; assay: MIC, serial dilution method in Müller-Hinton agar; type: cell-based; details: Providencia rettgeri
Protocol: as §1

[23] = tested on: Pseudomonas aeruginosa IFO3445; assay: MIC, serial dilution method in Müller-Hinton agar; type: cell-based; details: 37°C, 18 hours
Protocol: as §1

[24] = Test 1: urinary recovery after oral administration; type: in vivo; details: mice (ICR-strain, female), 300 mcg per mouse, urine collected until 5 hours after administration, microbial assay, molar percentage
Protocol: To mice (ICR-strain, female, 4 weeks-aged) was orally administered a new cephalosporin compound according to this invention at a dosage of 300 mcg per mouse. Until the end of 5 hours after oral administration of the test cephalosporin compound, all the volumes of urine discharged by the treated mice were collected together, and the total amount of the test compound remaining in the collected urine was measured by a microbial assay method. The urinary recovery of the test compound was calculated in terms of percentage of the molar quantity of the test compound as recovered, against the molar quantity of the test compound as orally given.

[25] = Staphylococcus aureus FDA209P JC-1, Müller-Hinton agar, 37°C, 18 hours, read-out: MIC
[26] = Escherichia coli, K12C600, 18 h
[27] = Salmonella enteritidis G14, Müller-Hinton agar, 37°C, 18 hours, read-out: MIC
[28] = Staphylococcus aureus MS353, Müller-Hinton agar, 37°C, 18 hours, read-out: MIC
[29] = Klebsiella pneumoniae, PCI602, 18 h
[30] = Escherichia coli, NIHJJS2, 18 h
[31] = Staphylococcus aureus, FDA209P, 18 h
[32] = Proteus rettgeri IFO3850, Müller-Hinton agar, 37°C, 18 hours, read-out: MIC
[33] = K12C600, Escherichia coli K-12 C600, Müller-Hinton agar, 37°C, 18 hours, read-out: MIC
[34] = NIHJJS2, Escherichia coli NIHJ-JS-2, Müller-Hinton agar, 37°C, 18 hours, read-out: MIC

SMILES	MIC ([1]; 18 h) [µg/mL]	MIC [3] [µg/mL]	MIC [5, 27] [µg/mL]	MIC [6] [µg/mL]	MIC [7] [µg/mL]	MIC [8] [µg/mL]	MIC [9] [µg/mL]	MIC [10] [µg/mL]	MIC [11] [µg/mL]	MIC [12] [µg/mL]	MIC [13] [µg/mL]	MIC [14, 28] [µg/mL]	MIC [15] [µg/mL]	MIC [16] [µg/mL]	MIC [17] [µg/mL]	MIC [18] [µg/mL]	MIC [19] [µg/mL]	MIC [20, 29] [µg/mL]	MIC [23] [µg/mL]	dose excreted [24] [%]	also measured
CC1=C(C(=O)O)N2C(=O)C(NC(=O)[C@H](N)c3ccc(CO)c(O)c3)[C@H]2SC1 (stereo partly drawn) [Example 1 Compound, 7-{(R)-2-amino-2-(3-hydroxy-4-hydroxymethylphenyl)acetamido}-3-methyl-3-cephem-4-carboxylic acid]	6.25 (≈ 15.9 µM)	6.25 (≈ 15.9 µM)	50 (≈ 127 µM)	100 (≈ 254 µM)	> 100	0.1 (≈ 0.254 µM)	12.5 (≈ 31.8 µM)	12.5 (≈ 31.8 µM)	12.5 (≈ 31.8 µM)	0.2 (≈ 0.508 µM)	100 (≈ 254 µM)	3.13 (≈ 7.96 µM)	0.78 (≈ 1.98 µM)	> 100	100 (≈ 254 µM)	12.5 (≈ 31.8 µM)	12.5 (≈ 31.8 µM)	6.25 (≈ 15.9 µM)	> 100	65.1	MIC [2, 25]: 3.13 µg/mL (≈ 7.96 µM); MIC [4, 26]: 12.5 µg/mL (≈ 31.8 µM); MIC [21, 30]: 12.5 µg/mL (≈ 31.8 µM); MIC ([22]; IFO3850, 18 h): 12.5 µg/mL (≈ 31.8 µM)
CC1=C(C(=O)O)N2C(=O)[C@@H](NC(=O)[C@H](N)c3ccccc3)[C@H]2SC1 [CEX, Cefalexin, reference compound]	6.25 (≈ 18 µM)	3.13 (≈ 9.01 µM)	> 100	> 100	25 (≈ 72 µM)	0.1 (≈ 0.288 µM)	12.5 (≈ 36 µM)	6.25 (≈ 18 µM)	6.25 (≈ 18 µM)	0.2 (≈ 0.576 µM)	12.5 (≈ 36 µM)		0.78 (≈ 2.25 µM)	> 100	12.5 (≈ 36 µM)	12.5 (≈ 36 µM)	12.5 (≈ 36 µM)	3.13 (≈ 9.01 µM)	> 100		MIC [2, 31]: 3.13 µg/mL (≈ 9.01 µM); MIC [4, 26]: 6.25 µg/mL (≈ 18 µM); MIC ([14]; Staphylococcus aureus, MS353, 18 h): 3.13 µg/mL (≈ 9.01 µM); MIC [21, 30]: 6.25 µg/mL (≈ 18 µM); MIC [22, 32]: 12.5 µg/mL (≈ 36 µM)
C=CC1=C(C(=O)O)N2C(=O)C(NC(=O)[C@H](N)c3ccc(CO)c(O)c3)[C@H]2SC1 (stereo partly drawn) [Example 3 Compound, 7-{(R)-2-amino-2-(3-hydroxy-4-hydroxymethylphenyl)acetamido}-3-vinyl-3-cephem-4-carboxylic acid]	3.13 (≈ 7.72 µM)	3.13 (≈ 7.72 µM)		> 100	50 (≈ 123 µM)	0.2 (≈ 0.493 µM)	12.5 (≈ 30.8 µM)	3.13 (≈ 7.72 µM)	3.13 (≈ 7.72 µM)	0.2 (≈ 0.493 µM)	> 100	1.56 (≈ 3.85 µM)	0.05 (≈ 0.123 µM)	> 100	25 (≈ 61.7 µM)	12.5 (≈ 30.8 µM)	12.5 (≈ 30.8 µM)	3.13 (≈ 7.72 µM)	> 100	65	MIC [2, 25]: 1.56 µg/mL (≈ 3.85 µM); MIC [4, 33]: 6.25 µg/mL (≈ 15.4 µM); MIC ([5]; ENTERITIDIS, 18 h): 3.13 µg/mL (≈ 7.72 µM); MIC [21, 34]: 6.25 µg/mL (≈ 15.4 µM); MIC [22, 32]: 50 µg/mL (≈ 123 µM)
C/C=C\C1=C(C(=O)O)N2C(=O)C(NC(=O)[C@H](N)c3ccc(CO)c(OC)c3)[C@H]2SC1 (stereo partly drawn) [Example 5 Compound, 7-{(R)-2-amino-2-(4-hydroxymethyl-3-methoxyphenyl)acetamido}-3-{(Z)-1-propenyl}-3-cephem-4-carboxylic acid]		1.56 (≈ 3.6 µM)	0.78 (≈ 1.8 µM)	> 100	3.13 (≈ 7.22 µM)	0.025 (≈ 0.0577 µM)	25 (≈ 57.7 µM)	0.39 (≈ 0.9 µM)	0.78 (≈ 1.8 µM)	0.1 (≈ 0.231 µM)	> 100	0.78 (≈ 1.8 µM)	0.05 (≈ 0.115 µM)	100 (≈ 231 µM)	50 (≈ 115 µM)	12.5 (≈ 28.8 µM)	3.13 (≈ 7.22 µM)		> 100	47.9	MIC ([1]; Salmonella typhimurium IID971, Müller-Hinton agar, 37°C, 18 hours, read-out: MIC): 3.13 µg/mL (≈ 7.22 µM); MIC [2, 31]: 1.56 µg/mL (≈ 3.6 µM); MIC [4, 33]: 3.13 µg/mL (≈ 7.22 µM); MIC ([20]; Klebsiella pneumoniae PCI602, Müller-Hinton agar, 37°C, 18 hours, read-out: MIC): 0.78 µg/mL (≈ 1.8 µM); MIC [21, 34]: 6.25 µg/mL (≈ 14.4 µM); MIC [22, 32]: 3.13 µg/mL (≈ 7.22 µM)
